Data published in patent publication US20150291610A1, “C20' Urea Derivatives of Vinca Alkaloids” (THE SCRIPPS RESEARCH INSTITUTE, priority 2012, published 2015).
Like-named read-outs stand apart in the source and are kept apart here.

Tests used:
[1] = system: HCT116/VM46 (vinblastine-resistant strain of HCT116, Pgp over-expression) cells; experiment: Cell growth inhibition assay, HCT116/VM46; details: read-out: IC50 (nM) HCT116/VM46; resistant human colon cancer cell line, Pgp over-expression
[2] = system: LS174T (Colon, high levels of MUC2 mRNA); experiment: 15-cell line panel: LS174T; type: cell-based, human; details: independent laboratory panel
[3] = system: MDA-MB-468 (Breast, triple negative, amplified EGFR); experiment: 15-cell line panel: MDA-MB-468; type: cell-based, human; details: independent laboratory panel
HCT116 (Colon) = experiment: 15-cell line panel: HCT116; type: cell-based, human; details: independent laboratory panel
[4] = system: HCT116 (human colorectal carcinoma) cells; experiment: Cell growth inhibition assay, HCT116; type: cell-based; details: HCT116 human colon cancer cell line; avg of 4-16 determinations; read-out: IC50 (nM) HCT116
[5] = system: HCC1143 (Breast, triple negative); experiment: 15-cell line panel: HCC1143; type: cell-based, human; details: independent laboratory panel
[6] = system: HCC70 (Breast, overexpression of p53); experiment: 15-cell line panel: HCC70; type: cell-based, human; details: independent laboratory panel
NCI-H520 (Lung) = experiment: 15-cell line panel: NCI-H520; type: cell-based, human; details: independent laboratory panel
[7] = system: AU565 (Breast, overexpression of her2/neu); experiment: 15-cell line panel, independent laboratory: AU565; type: cell-based, human
[8] = system: MCF-7 (Breast, overexpression of her2/neu); experiment: 15-cell line panel: MCF-7; type: cell-based, human; details: independent laboratory panel; > = highest concentration tested
[9] = system: L1210 (mouse lymphocytic leukemia) cells; experiment: Cell growth inhibition assay, L1210; type: cell-based; details: L1210 murine leukemia cell line; avg of 4-16 determinations
LNCaP-FGC (Prostate) = experiment: 15-cell line panel: LNCaP-FGC; type: cell-based, human; details: independent laboratory panel
[10] = system: ZR-75-1 (Breast, overexpression of her2); experiment: 15-cell line panel: ZR-75-1; type: cell-based, human; details: independent laboratory panel
[11] = system: T47D (Breast, mutant p53); experiment: 15-cell line panel: T47D; type: cell-based, human; details: independent laboratory panel
[12] = system: human tumor 15-cell line panel; experiment: Human tumor 15-cell line panel, whole panel (averages, ranges); type: cell-based; details: for average IC50 value in human tumor cell line panel: comparative average
[13] = system: SW403 (Colon, KRAS^G12V mutation); experiment: 15-cell line panel: SW403; type: cell-based, human; details: independent laboratory panel
[14] = system: HCT116/VM46 (Colon, vinblastine resistant); experiment: 15-cell line panel: HCT116/VM46; type: cell-based, human; details: independent laboratory panel; for IC50: > = highest concentration tested
porcine tubulin = biological target: T1, porcine tubulin (Sus scrofa, UniProt P02550+P02554); type: binding; details: for tubulin binding affinity compared with vinblastine: in words
T1 construct: purified porcine tubulin; purchased Cytoskeleton, Inc
Source text: [Owellen et al., Biochem. Pharmacol. 1977 26:1213-1219.] […] Millipore Steriflip® filter units were used to wash the filter paper with buffer under mild suction.

[15] = system: PA-1 (Ovary, overexpression of AIB1); experiment: 15-cell line panel: PA-1; type: cell-based, human; details: independent laboratory panel
[16] = system: KPL4 (Breast, overexpression of erbB2); experiment: 15-cell line panel: KPL4; type: cell-based, human; details: independent laboratory panel

T1 sequence (P02550 whole entry): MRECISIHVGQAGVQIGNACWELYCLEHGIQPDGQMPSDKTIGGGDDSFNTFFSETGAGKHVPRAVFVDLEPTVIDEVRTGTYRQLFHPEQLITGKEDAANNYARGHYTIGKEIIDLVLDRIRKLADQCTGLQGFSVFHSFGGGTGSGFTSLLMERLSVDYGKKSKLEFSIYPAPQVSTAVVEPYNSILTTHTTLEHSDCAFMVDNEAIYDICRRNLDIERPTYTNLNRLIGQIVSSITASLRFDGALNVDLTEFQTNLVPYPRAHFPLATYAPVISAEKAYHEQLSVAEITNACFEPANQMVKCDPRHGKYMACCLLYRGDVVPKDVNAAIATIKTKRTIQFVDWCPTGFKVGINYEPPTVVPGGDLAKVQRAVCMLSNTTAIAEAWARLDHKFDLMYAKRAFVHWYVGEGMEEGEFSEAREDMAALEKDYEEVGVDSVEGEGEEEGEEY
T1 sequence (P02554 whole entry): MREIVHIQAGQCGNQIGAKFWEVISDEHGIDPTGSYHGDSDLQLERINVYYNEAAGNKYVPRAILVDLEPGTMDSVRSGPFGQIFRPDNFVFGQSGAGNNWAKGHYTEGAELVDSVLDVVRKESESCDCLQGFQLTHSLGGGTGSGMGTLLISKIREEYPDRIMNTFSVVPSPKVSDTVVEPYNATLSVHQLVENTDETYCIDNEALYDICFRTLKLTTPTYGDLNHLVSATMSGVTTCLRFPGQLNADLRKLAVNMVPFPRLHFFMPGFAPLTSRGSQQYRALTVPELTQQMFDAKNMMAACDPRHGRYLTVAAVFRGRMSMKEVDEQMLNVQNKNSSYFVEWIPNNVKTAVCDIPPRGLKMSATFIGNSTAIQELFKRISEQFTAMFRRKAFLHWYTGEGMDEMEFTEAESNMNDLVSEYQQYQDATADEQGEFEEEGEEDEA

| Compound | IC50 [1] [nM] | IC50 [2] [nM] | IC50 [3] [nM] | IC50 (HCT116 (Colon)) [nM] | IC50 [4] [nM] | IC50 [5] [nM] | IC50 [6] [nM] | IC50 (NCI-H520 (Lung)) [nM] | IC50 [7] [nM] | IC50 [8] [nM] | IC50 [9] [nM] | IC50 [10] [nM] | IC50 [11] [nM] | average enhancement over the activity of vinblastine in panel [12] [fold] | average IC50 value in human tumor cell line panel [12] [pM] | IC50 [13] [nM] | IC50 [14] [nM] | tubulin binding affinity compared with vinblastine (porcine tubulin) | IC50 [15] [nM] | IC50 [16] [nM] | also measured |
| --- | --- | --- | --- | --- | --- | --- | --- | --- | --- | --- | --- | --- | --- | --- | --- | --- | --- | --- | --- | --- | --- |
| CC[C@]1(NC(=O)N2Cc3ccccc3C2)C[C@@H]2CN(CCc3c([nH]c4ccccc34)[C@@](C(=O)OC)(c3cc4c(cc3OC)N(C)[C@H]3[C@@](O)(C(=O)OC)[C@H](OC(C)=O)[C@]5(CC)C=CCN6CC[C@]43[C@@H]65)C2)C1 [Compound 58] | 7.5 | 0.45 | 0.39 | 0.16 | 0.6 | 0.09 | 0.04 | 0.1 | 0.11 | > 12.5 | 0.51 | 0.45 | 0.41 | 30 | 200 | 0.45 | 3.5 | higher affinity than vinblastine | 0.11 | 0.04 | IC50 (LNCaP-FGC (Prostate); read-out: IC50 (nM) LNCaP-FGC): 0.24 nM; IC50 ([12]; range over cell lines, read-out: IC50 values across the panel): 0.04 to 0.45 nM; differential of HCT116/VM46 from sensitive HCT116 in panel [14]: 20 fold; % ^3H-vinblastine remaining bound (porcine tubulin; ligand vs [^3H]VBL (1:1), normalized to VLB + [^3H]VLB = 50.0%): 41.2% |
| CCC1(NC(=O)N2CCc3ccccc3C2)CC2CN(CCc3c([nH]c4ccccc34)C(C(=O)OC)(c3cc4c(cc3OC)N(C)C3C(O)(C(=O)OC)C(OC(C)=O)C5(CC)C=CCN6CCC43C65)C2)C1 (stereo not drawn) [Compound 57] | 8.7 | 0.3 | 0.12 | 0.26 | 0.56 | 0.16 | 0.13 | 0.14 | 0.13 | 2.1 | 0.62 | 0.52 | 0.55 | 30 | 200 | 1.2 | 6.6 | higher affinity than vinblastine | 0.19 | 0.06 | IC50 (LNCaP-FGC (Prostate); read-out: IC50 LNCaP-FGC): 0.02 nM |
